# According to patent EP4741386A1 (Jiangsu Yahong Meditech Co., Ltd., priority 2023, dated 2025):
# Legend:
# [1] = target: T1, Recombinant human His6-USP1/His6-UAF1 complex protein (Homo sapiens, UniProt O94782); assay: In vitro inhibitory activity against USP1 (Ubiquitin Rhodamine 110 fluorescence detection, 384-well plate); format: biochemical; settings: Ub-Rho substrate, 1 hour pre-incubation, read after 30 minutes
# T1 construct: His6; purchased R&D E-568-050
# How it was run: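 Fluorescence assay measuring inhibition of recombinant human His6-USP1/His6-UAF1 complex with Ubiquitin-Rhodamine 110 substrate. Compounds held as 50 mM stocks in 100% DMSO and dispensed by acoustic transfer into modified Tris assay buffer.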
# [2] = tested on: MDA-MB-436; assay: CTG experiment for cell viability (CellTiter-Glo, 96-well plate, 7 days); format: cell-based; settings: MDA-MB-436 cells, 7 days culture with compound
# How it was run: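 MDA-MB-436 cells in DMEM were plated in 96-well format, treated with compounds, and cultured 7 days at 37°C. After removing the medium, cells were given PBS plus CellTiter-Glo reagent, incubated 10 min at room temperature, and luminescence was read. Curves were fitted as for the enzyme assay.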
# [3] = Homo sapiens, MDA-MB-436, 168 h
# T1 sequence (O94782 whole entry): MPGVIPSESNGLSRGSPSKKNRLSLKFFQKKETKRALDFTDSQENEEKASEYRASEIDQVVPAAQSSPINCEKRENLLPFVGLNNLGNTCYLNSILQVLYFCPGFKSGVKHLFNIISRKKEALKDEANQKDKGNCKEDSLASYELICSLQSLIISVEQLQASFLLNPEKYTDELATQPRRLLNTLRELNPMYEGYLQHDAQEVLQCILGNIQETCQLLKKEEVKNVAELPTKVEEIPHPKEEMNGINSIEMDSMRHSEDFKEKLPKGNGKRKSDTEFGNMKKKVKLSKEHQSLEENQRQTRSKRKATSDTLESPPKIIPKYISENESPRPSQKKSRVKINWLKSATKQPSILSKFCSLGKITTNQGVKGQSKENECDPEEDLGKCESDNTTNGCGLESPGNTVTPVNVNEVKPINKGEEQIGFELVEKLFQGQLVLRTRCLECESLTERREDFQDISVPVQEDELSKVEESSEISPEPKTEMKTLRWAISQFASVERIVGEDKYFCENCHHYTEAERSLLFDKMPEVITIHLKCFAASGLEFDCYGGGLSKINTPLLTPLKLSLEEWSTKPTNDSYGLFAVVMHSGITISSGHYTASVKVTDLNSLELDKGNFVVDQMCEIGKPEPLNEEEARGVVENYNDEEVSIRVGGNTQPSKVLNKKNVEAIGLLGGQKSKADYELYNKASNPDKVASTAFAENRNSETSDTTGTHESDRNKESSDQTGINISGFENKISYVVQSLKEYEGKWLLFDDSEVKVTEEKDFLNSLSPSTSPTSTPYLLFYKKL
# T1 sequence (Q8TAF3 whole entry partner): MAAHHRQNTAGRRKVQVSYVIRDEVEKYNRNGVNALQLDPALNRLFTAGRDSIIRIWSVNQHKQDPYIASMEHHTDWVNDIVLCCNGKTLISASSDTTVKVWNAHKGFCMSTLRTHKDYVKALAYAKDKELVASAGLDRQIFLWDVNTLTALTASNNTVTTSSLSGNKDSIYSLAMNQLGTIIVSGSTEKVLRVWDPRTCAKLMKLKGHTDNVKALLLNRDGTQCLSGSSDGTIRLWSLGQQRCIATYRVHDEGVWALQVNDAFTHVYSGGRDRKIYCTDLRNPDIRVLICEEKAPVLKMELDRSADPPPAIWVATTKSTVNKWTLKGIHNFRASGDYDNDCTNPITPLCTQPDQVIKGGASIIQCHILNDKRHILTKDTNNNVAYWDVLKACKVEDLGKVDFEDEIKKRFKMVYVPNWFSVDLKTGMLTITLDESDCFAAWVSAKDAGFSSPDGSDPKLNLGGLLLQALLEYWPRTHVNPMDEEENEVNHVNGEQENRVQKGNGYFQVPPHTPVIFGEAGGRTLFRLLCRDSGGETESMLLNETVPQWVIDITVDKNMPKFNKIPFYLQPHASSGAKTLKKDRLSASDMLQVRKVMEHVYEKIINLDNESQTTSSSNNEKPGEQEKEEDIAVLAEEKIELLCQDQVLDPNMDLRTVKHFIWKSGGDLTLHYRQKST
SMILES,IC50 [1],"IC50 [2, 3]",IC50 [2]
"COc1cnc(-c2c(Cl)cnn2C(C)C)nc1N(C)CC12CCC(c3nc(C(F)(F)F)cn3C3CCC3)(CC1)OC2 [Example S12, 2-(4-Chloro-1-isopropyl-1H-pyrazol-5-yl)-N-((1-(1-cyclobutyl-4-(trifluoromethyl)-1H-imidazol-2-yl)-2-oxabicyclo[2.2.2]oct-4-yl)methyl)-5-methoxy-N-methylpyrimidin-4-amine]",0.035 µM,0.168 µM,–
"COc1cnc(-c2c(Cl)cnn2C(C)C)nc1N(C)CC12CCC(c3nc(C(F)(F)F)cn3C(C)C)(CC1)OC2 [Example S13, 2-(4-Chloro-1-isopropyl-1H-pyrazol-5-yl)-N-((1-(1-isopropyl-4-(trifluoromethyl)-1H-imidazol-2-yl)-2-oxabicyclo[2.2.2]oct-4-yl)methyl)-5-methoxy-N-methylpyrimidin-4-amine]",0.013 µM,0.0608 µM,–
"COc1cnc(-c2c(OC)ncnc2C(F)(F)F)nc1NCC12CCC(c3nc(C(F)(F)F)cn3C(C)C)(CC1)OC2 [Example S15, N-((1-(1-Isopropyl-4-(trifluoromethyl)-1H-imidazol-2-yl)-2-oxabicyclo[2.2.2]oct-4-yl)methyl)-4',5-dimethoxy-6'-(trifluoromethyl)-[2,5'-bipyrimidin]-4-amine]",0.091 µM,0.239 µM,–
"COc1cnc(-c2c(OC)ncnc2C2CC2)nc1NCC12CCC(c3nc(C(F)(F)F)cn3C3CCC3)(CC1)OC2 [Example S16, N-((1-(1-Cyclobutyl-4-(trifluoromethyl)-1H-imidazol-2-yl)-2-oxabicyclo[2.2.2]oct-4-yl)methyl)-4'-cyclopropyl-5,6'-dimethoxy-[2,5'-bipyrimidin]-4-amine]",0.034 µM,0.0403 µM,–
"COc1cnc(-c2c(Cl)cnn2C(C)C)nc1N(C)CC12CCC(c3nc(C(F)(F)F)cn3C)(CC1)OC2 [Example S17, 2-(4-Chloro-1-isopropyl-1H-pyrazol-5-yl)-5-methoxy-N-methyl-N-((1-(1-methyl-4-(trifluoromethyl)-1H-imidazol-2-yl)-2-oxabicyclo[2.2.2]oct-4-yl)methyl)pyrimidin-4-amine]",0.0061 µM,0.0359 µM,–
"COc1cnc(-c2c(OC)ncnc2C2CC2F)nc1NCC12CCC(c3nc(C(F)(F)F)cn3C)(CC1)CC2 (centres unmarked) [Example S18, 4'-(2-Fluorocyclopropyl)-5,6'-dimethoxy-N-((4-(1-methyl-4-(trifluoromethyl)-1 H-imidazol-2-yl)bicyclo[2.2.2]oct-1-yl)methyl)-[2,5'-bipyrimidin]-4-amine]",0.012 µM,0.0107 µM,–
COc1cnc(-c2c(OC)ncnc2C2CC2)nc1NC[C@H]1CC[C@H](c2nc(C(F)(F)F)cn2C)CC1 [Example S20],0.019 µM,0.0214 µM,–
COc1cnc(-c2c(OC)ncnc2C2CC2)nc1N(C)C[C@H]1CC[C@H](c2nc(C(F)(F)F)cn2C)CC1 [Example S21],0.006 µM,0.0047 µM,–
"[2H]C([2H])([2H])N(C[C@H]1CC[C@H](c2nc(C(F)(F)F)cn2C)CC1)c1nc(-c2c(OC)ncnc2C2CC2)ncc1OC [Example S22, 4'-Cyclopropyl-5,6'-dimethoxy-N-(methyl-d3)-N-(((1r,4r)-4-(1-methyl-4-(trifluoromethyl)-1H-imidazol-2-yl)cyclohexyl)methyl)-[2,5'-bipyrimidin]-4-amine]",0.0046 µM,0.0045 µM,–
"[2H]C([2H])([2H])N(C[C@H]1CC[C@H](c2nc(C(F)(F)F)cn2C2CC2)CC1)c1nc(-c2c(OC)ncnc2C2CC2)ncc1OC [Example S23, 4'-Cyclopropyl-N-(((1R,4R)-4-(1-cyclopropyl-4-(trifluoromethyl)-1H-imidazol-2-yl)cyclohexyl)methyl)-5,6'-dimethoxy-N-(methyl-D3)-[2,5'-bipyrimidin]-4-amine]",0.0048 µM,0.0001 µM,–
"[2H]C([2H])([2H])Oc1ncnc(C2CC2)c1-c1ncc(OC)c(N(C[C@H]2CC[C@H](c3nc(C(F)(F)F)cn3C)CC2)C([2H])([2H])[2H])n1 [Example S24, 4'-Cyclopropyl-5-methoxy-6'-(methoxy-D3)-N-(methyl-D3)-N(((1R,4R)-4-(1-methyl-4-(trifluoromethyl)-1H-imidazol-2-yl)cyclohexyl)methyl)-[2,5'-bipyrimidin]-4-amine]",0.0057 µM,0.0046 µM,–
"COc1cnc(-c2c(OC)ncnc2C2CC2)nc1N(C)C[C@H]1CC[C@H](c2nc(C(F)(F)F)cn2C(C)C)CC1 [Example S26, 4'-Cyclopropyl-N-(((1R,4R)-4-(1-isopropyl-4-(trifluoromethyl)-1H-imidazol-2-yl)cyclohexyl)methyl)-5,6'-dimethoxy-N-methyl-[2,5'-bipyrimidin]-4-amine]",0.013 µM,0.0143 µM,–
"COc1cnc(-c2c(OC)ncnc2OC)nc1NC[C@H]1CC[C@H](c2nc(C(F)(F)F)cn2C2CC2)CC1 [Example S29, N-(((1R,4R)-4-(1-cyclopropyl-4-(trifluoromethyl)-1H-imidazol-2-yl)cyclohexyl)methyl)-4',5,6'-trimethoxy-[2,5'-bipyrimidin]-4-amine]",0.015 µM,0.338 µM,–
"COc1cnc(-c2c(OC)ncnc2OC)nc1N(C)C[C@H]1CC[C@H](c2nc(C(F)(F)F)cn2C2CC2)CC1 [Example S30, N-(((1R,4R)-4-(1-cyclopropyl-4-(trifluoromethyl)-1H-imidazol-2-yl)cyclohexyl)methyl)-4',5,6'-trimethoxy-N-methyl-[2,5'-bipyrimidin]-4-amine]",0.012 µM,0.0319 µM,–
COc1cnc(-c2c(C)ncnc2OC2CC2)nc1N(C)C[C@H]1CC[C@H](c2nc(C(F)(F)F)cn2C)CC1 [Example S32],0.106 µM,0.235 µM,–
COc1cnc(-c2c(OC)ncnc2C2CC2F)nc1N(C)C[C@H]1CC[C@H](c2nc(C(F)(F)F)cn2C)CC1 (some centres unmarked) [Example S35],0.0068 µM,0.0035 µM,–
"COc1cnc(-c2c(OC)ncnc2C(F)(F)F)nc1N(C)C[C@H]1CC[C@H](c2nc(C(F)(F)F)cn2C)CC1 [Example S36, 4',5-Dimethoxy-N-methyl-N-(((1R,4R)-4-(1-methyl-4-(trifluoromethyl)-1H-imidazol-2-yl)cyclohexyl)methyl)-6'-(trifluoromethyl)-[2,5'-bipyrimidin]-4-amine]",0.0071 µM,0.0018 µM,–
"COc1cnc(-c2c(OC)ncnc2C(F)(F)F)nc1N(C)C[C@H]1CC[C@H](c2nc(C(F)(F)F)cn2C(C)C)CC1 [Example S37, N-(((1R,4R)-4-(1-isopropyl-4-(trifluoromethyl)-1H-imidazol-2-yl)cyclohexyl)methyl)-4',5-dimethoxy-N-methyl-6'-(trifluoromethyl)-[2,5'-bipyrimidin]-4-amine]",0.012 µM,0.0326 µM,–
"COc1cnc(-c2cccnc2C(C)C)nc1NCC12C3C4C1C1C2C3C41c1nc(C(F)(F)F)cn1C (centres unmarked) [Example S42, 2-(2-isopropylpyridin-3-yl)-5-methoxy-N-((4-(1-methyl-4-(trifluoromethyl)-1H-imidazol-2-yl)cuban-1-yl)methyl)pyrimidin-4-amine]",0.0012 µM,0.0035 µM,–
COc1cnc(-c2c(OC)ncnc2C2CC2)nc1N(C#N)CC12CCC(c3nc(C(F)(F)F)cn3C)(CC1)CC2 [Example S43],0.0069 µM,0.0121 µM,–
"COc1cnc(-c2c(OC)ncnc2C2CC2(F)F)nc1N(C)CC1CCC(c2nc(C(F)(F)F)cn2C)CC1 [Example S49, 4'-(2,2-difluorocyclopropyl)-5,6'-dimethoxy-N-methyl-N-((1R,4R)-4-(1-methyl-4-(trifluoromethyl)-1H-imidazol-2-yl)cyclohexyl)methyl)-[2,5'-bipyrimidin]-4-amine]",0.0031 µM,0.0007 µM,–
"COc1cnc(-c2c(OC)ncnc2C2CC2)nc1N(C)CC12C3C4C1C1C2C3C41c1nc(C(F)(F)F)cn1C (centres unmarked) [Example S51, 4'-cyclopropyl-5,6'-dimethoxy-N-methyl-N-((4-(1-methyl-4-(trifluoromethyl)-1H-imidazol-2-yl)cuban-1-yl)methyl)-[2,5'-bipyrimidin]-4-amine]",0.0038 µM,–,0.0058 µM
